Numbered stars: 1 amine (or outer) side, 2 acyl side, 3 side chain; on linkers, the order of the positions; unused ones are H or OH. Square brackets hold non-standard residues; d marks the D form. Peptide text beside a SMILES is read from it. N(2-(2-PhOPh)Et)Gly = O=C(O)CNCCc1ccccc1Oc1ccccc1; Gly(N-3,5-(OMe)2-Ph) = COc1cc(NCC(=O)O)cc(OC)c1; X1 = COc1ccc([C@H](C)N(CC(=O)[*:2])[*:1])cc1; N((CH2)3OiPr)Gly = CC(C)OCCCNCC(=O)O
How the values were obtained:
[1] = test system: LNCaP-abl cells; conditions: read-out: IC50 proliferation, LNCaP-abl; 5 days of treatment
Description: (§1) To test the effect of 13 in a model of prostate cancer, we used the LNCaP-abl and LNCaP-95 cell lines. These cell lines were derived from androgen-sensitive LNCaP cells, and passaged in androgen-deprived media to mimic the development of castration resistance in patient tumors[54],[55]. We first isolated mRNA from LNCaP-abl and LNCaP-95 cells treated with vehicle, 10 µM 13 and linear 13 for 24 h to check the expression of endogenous Wnt and AR target genes (Fig. 4a). […] AR-V7 is particularly challenging to target as most AR antagonists target the ligand binding domain. […] To check if the changes in Wnt and AR target gene expression translated into effects on growth, the viability of LNCaP-abl and LNCaP-95 cells was determined after 5 days of treatment (Fig. 4b).
(§2) Data are presented as mean and SD (n = 3) of three independent experiments (a) or representative of three independent experiments (b, c).
(§3) LNCaP-abl and LNCaP-95 cells were cultured in indicator free RPMI 1640 media (Life) supplemented with 10% charcoal stripped FBS, 1% pennicillin/streptomycin, and 1% L-Glutamine. […] Both were measured using the ONE-Glo detection kit (Promega) and data is standardized to CellTiter-Fluor (Promega) viability readings to account for potential variations in well to well cell number. […] Total protein concentration in cell lysates were determined using Pierce Rapid Gold BCA Protein Assay Kit (Thermo). […]

[2] = test system: LNCaP-95 cells; conditions: read-out: IC50 proliferation, LNCaP-95; 5 days of treatment
Description: as §1, §2, §3

[3] = target: T1, β-catenin (Homo sapiens, UniProt P35222); assay: Dynamic light scattering of β-catenin; assay type: binding; conditions: 10 µM compound vs 1% DMSO vehicle
T1 construct: His6-β-catenin armadillo domain, AA134-668; made in house; host or cells: E. coli BL21 DL3 (NEB)
T1 sequence (P35222 134-668): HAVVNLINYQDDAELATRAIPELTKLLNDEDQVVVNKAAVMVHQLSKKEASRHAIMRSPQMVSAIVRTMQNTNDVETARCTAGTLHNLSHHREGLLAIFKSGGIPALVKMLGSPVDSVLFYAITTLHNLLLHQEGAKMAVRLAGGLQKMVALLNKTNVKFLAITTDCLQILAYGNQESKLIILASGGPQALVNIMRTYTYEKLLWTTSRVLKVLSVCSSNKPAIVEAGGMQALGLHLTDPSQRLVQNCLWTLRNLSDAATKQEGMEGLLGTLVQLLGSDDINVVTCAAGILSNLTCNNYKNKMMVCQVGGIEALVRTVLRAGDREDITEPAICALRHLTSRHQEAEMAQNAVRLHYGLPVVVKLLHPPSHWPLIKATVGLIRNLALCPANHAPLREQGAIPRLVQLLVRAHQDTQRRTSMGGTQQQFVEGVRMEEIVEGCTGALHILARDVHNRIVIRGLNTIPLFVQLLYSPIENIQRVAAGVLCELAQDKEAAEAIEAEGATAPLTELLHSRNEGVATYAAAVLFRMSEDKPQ
Description: We next characterized the dose response curves for compound 13 in the Wnt and AR luciferase reporters. The linear version of 13 (linear 13: NH2-|N-mpp, N-dmp, N-ipp, N-Smpe, N-Smpe, D-Ala|-OH) was used as a control compound. […] To test direct binding, we pre-formed dynamic light scattering (DLS) with β-catenin in the presence of vehicle, compound 13, and α-cyclodextrin. […] HEK293 cells were transiently transfected with a plasmid expressing full length, myc-tagged TCF4. After 48 h treatment with either vehicle (DMSO) or 10 µM 13, cells were lysed and myc-TCF4 protein was immunoprecipitated.

For `COc1ccc([C@H](C)N2CC(=O)N[C@H](C)C(=O)N(CCc3ccccc3Oc3ccccc3)CC(=O)N(c3cc(OC)cc(OC)c3)CC(=O)N(CCCOC(C)C)CC(=O)N([C@@H](C)c3ccc(OC)cc3)CC2=O)cc1` [Compound 13] (cyclo([dA][N(2-(2-PhOPh)Et)Gly][Gly(N-3,5-(OMe)2-Ph)][N((CH2)3OiPr)Gly][X1][X1])), the IC50 [1] was 195 nM, the IC50 [2] was 782 nM and the “Shift in measured hydrodynamic radius of β-catenin (DLS)” value [3] was “significant shift”.

From publication PMC6199279, “Design of Peptoid-peptide Macrocycles to Inhibit the β-catenin TCF Interaction in Prostate Cancer” (Nature Communications, 2018)
